Laboratory results: US7572793B2, “3-Substituted-4-pyrimidone derivatives” (Mitsubishi Tanabe Pharma Corporation, priority 2001, dated 2009)
pIC50: −log10 of the molar value.

Target: T1, bovine cerebral TPK1 (Bos taurus, UniProt A0A3Q1MT31)
T1 construct: from tissue; host or cells: bovine brain (cerebrum)
Assay: Inhibitory activity against P-GS1 phosphorylation by bovine cerebral TPK1
Type: biochemical
Conditions: 41.7 μM [γ-32P]ATP, 25° C., 2 hours, pH 6.5
Procedure: Inhibitory Activity of the Medicament of the Present Invention Against P-GS1 Phosphorylation by Bovine Cerebral TPK1
A mixture containing 100 mM MES-sodium hydroxide (pH 6.5), 1 mM magnesium acetate, 0.5 mM EGTA, 5 mM β-mercaptoethanol, 0.02% Tween 20, 10% glycerol, 12 μg/ml P-GS1, 41.7 μM [y-^32P] ATP (68 kBq/ml), bovine cerebral TPK1 and a compound shown in Table (a final mixture contained 1.7% DMSO deriving from a solution of a test compound prepared in the presence of 10% DMSO) was used as a reaction system. The phosphorylation was started by adding ATP, and the reaction was conducted at 25° C. for 2 hours, and then stopped by adding 21% perchloric acid on ice cooling. The reaction mixture was centrifuged at 12,000 rpm for 5 minutes and adsorbed on P81 paper (Whatmann), and then the paper was washed four times with 75 mM phosphoric acid, three times with water and once with acetone. The paper was dried, and the residual radioactivity was measured using a liquid scintillation counter. […] PHF formation, and that the medicaments of the present invention are effective for preventive and/or therapeutic treatment of Alzheimer disease and the above-mentioned diseases.

T1 sequence (A0A3Q1MT31 1-419): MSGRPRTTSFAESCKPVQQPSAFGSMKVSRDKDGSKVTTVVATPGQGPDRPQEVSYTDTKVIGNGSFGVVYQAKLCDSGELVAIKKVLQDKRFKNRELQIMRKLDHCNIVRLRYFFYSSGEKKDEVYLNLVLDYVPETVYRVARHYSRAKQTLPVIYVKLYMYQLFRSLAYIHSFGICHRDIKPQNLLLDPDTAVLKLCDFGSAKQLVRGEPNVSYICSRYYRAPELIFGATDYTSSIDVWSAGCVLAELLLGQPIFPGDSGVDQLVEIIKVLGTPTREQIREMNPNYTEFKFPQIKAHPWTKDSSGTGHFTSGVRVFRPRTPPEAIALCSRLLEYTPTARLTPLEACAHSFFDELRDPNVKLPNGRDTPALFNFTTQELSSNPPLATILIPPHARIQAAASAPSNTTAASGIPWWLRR

pIC50 | Compound
8.15 | Cn1c(N2CCOC(c3cccc(N4CCCC4)c3)C2)nc(-c2ccncn2)cc1=O (single isomer, unassigned) [Compound B275]
8.32 | Cn1c(N2CCOC(c3cccc(N4CCCC4)c3)C2)nc(-c2ccncn2)cc1=O (single isomer, unassigned) [Compound B276]
7.42 | Cn1c(N2CCOC(C(=O)c3ccccc3)C2)nc(-c2ccncn2)cc1=O (single isomer, unassigned) [Compound C789]
9.19 | Cn1c(N2CCOC(C(=O)c3ccccc3)C2)nc(-c2ccncn2)cc1=O (single isomer, unassigned) [Compound C790]
7.62 | Cn1c(NCC(=O)c2ccccc2)nc(-c2ccncn2)cc1=O [Compound A119]
7.72 | Cn1c(NCC(=O)c2cccc(F)c2)nc(-c2ccncn2)cc1=O [Compound A121]
7.96 | Cn1c(NCC(=O)c2cccc(Cl)c2)nc(-c2ccncn2)cc1=O [Compound A124]
7.52 | Cc1cccc(C(=O)CNc2nc(-c3ccncn3)cc(=O)n2C)c1 [Compound A130]
7.96 | Cn1c(N2CCOC(c3ccc(F)cc3)C2)nc(-c2ccncn2)cc1=O (stereo not drawn) [Compound B030]
8.30 | Cn1c(N2CCO[C@@H](c3ccc(F)cc3)C2)nc(-c2ccncn2)cc1=O [Compound B031, (S)-2-[2-(4-fluorophenyl)morpholin-4-yl]-3-methyl-6-pyrimidin-4-yl-3H-pyrimidin-4-one]
7.49 | Cn1c(N2CCO[C@H](c3ccc(F)cc3)C2)nc(-c2ccncn2)cc1=O [Compound B032]
8.52 | Cn1c(N2CCO[C@@H](c3ccccc3F)C2)nc(-c2ccncn2)cc1=O [Compound B037]
8.54 | COc1ccc([C@H]2CN(c3nc(-c4ccncn4)cc(=O)n3C)CCO2)cc1 [Compound B079, (S)-2-[2-(4-Methoxyphenyl)morpholin-4-yl]-3-methyl-6-pyrimidin-4-yl-3H-pyrimidin-4-one]
8.34 | COc1cccc([C@H]2CN(c3nc(-c4ccncn4)cc(=O)n3C)CCO2)c1 [Compound B082]
8.92 | COc1ccccc1C1CN(c2nc(-c3ccncn3)cc(=O)n2C)CCO1 (stereo not drawn) [Compound B084]
9.06 | COc1ccccc1[C@H]1CN(c2nc(-c3ccncn3)cc(=O)n2C)CCO1 [Compound B085]
9.36 | COc1cccc(OC)c1C1CN(c2nc(-c3ccncn3)cc(=O)n2C)CCO1 (stereo not drawn) [Compound B102]
9.64 | COc1cccc(OC)c1[C@H]1CN(c2nc(-c3ccncn3)cc(=O)n2C)CCO1 [Compound B103]
8.35 | COc1cccc(OC)c1[C@@H]1CN(c2nc(-c3ccncn3)cc(=O)n2C)CCO1 [Compound B104]
9.57 | Cn1c(N2CCOC(c3c(Cl)cccc3Cl)C2)nc(-c2ccncn2)cc1=O (stereo not drawn) [Compound B105]
8.68 | Cn1c(N2CCOC(c3ccc(CN4CCCC4)cc3)C2)nc(-c2ccncn2)cc1=O (stereo not drawn) [Compound B112]
7.64 | Cn1c(N2CCOC(c3ccccc3OCC3CC3)C2)nc(-c2ccncn2)cc1=O (stereo not drawn) [Compound B126]
8.43 | Cn1c(N2CCOC(c3ccc(N4CCCC4)cc3)C2)nc(-c2ccncn2)cc1=O (stereo not drawn) [Compound B140]
7.58 | COc1ccc(C2CN(c3nc(-c4ccncn4)cc(=O)n3C)CC(C)(C)O2)cc1 (stereo not drawn) [Compound B217]
7.92 | Cn1c(N2CCOC(c3nc4ccccc4s3)C2)nc(-c2ccncn2)cc1=O (stereo not drawn) [Compound B225]
9.09 | Cn1c(N2CCOC(c3cccc4c3OCC4)C2)nc(-c2ccncn2)cc1=O (stereo not drawn) [Compound B237]
9.33 | COc1cc(F)ccc1[C@H]1CN(c2nc(-c3ccncn3)cc(=O)n2C)CCO1 [Compound B238]
9.13 | Cn1c(N2CCOC(c3c(F)cccc3Cl)C2)nc(-c2ccncn2)cc1=O (stereo not drawn) [Compound B239]
8.46 | Cn1c(N2CCOC(c3ccc(F)cc3Cl)C2)nc(-c2ccncn2)cc1=O (stereo not drawn) [Compound B240]
8.34 | CC(C)Oc1cc(F)ccc1C1CN(c2nc(-c3ccncn3)cc(=O)n2C)CCO1 (stereo not drawn) [Compound B241]
